1 compound from patent US9132098B2, “Stable nanocomposition comprising doxorubicin, process for the preparation thereof, its use and pharmaceutical compositions containing it” (BBS Nanotechnology Ltd., priority 2013, dated 2015) can be followed below.

The data set relates to SK-OV-3 human ovary adenocarcinoma cells. Description: Comparative efficacy study in SK-OV-3 s.c. xenograft SCID mouse model of ovary cancer. The data set is classed as in vivo, SCID mice. The following applies: 78th day after tumor inoculation, total dose DOX 23, NP 17, NP-PEG 23 mg/kg. As for the experimental part: Tumor was induced in mice by implanting SK-OV-3 human ovary adenocarcinoma cells s.c. in upper region of back of SCID mice and allowing the tumors to develop to appreciable size over 40 days (30 mm3). The comparative efficacy study of six i.v. injection (day 43, 50, 57, 65, 71 and 78) of 5% glucose, doxorubicin (DOX) 3.8 mg/kg, NP […] and NP-PEG 3.8 mg/kg) was evaluated over 104 days. In this table there are the tumor volume of mice on 78th day after tumor inoculation (data represent mean±SEM of five mice per_group) and body weight of mice on 78th day after tumor inoculation (Data represent mean±STDEV of five mice per group). The table below discloses the comparative efficacy study in SK-OV-3 s.c. xenograft SCID mouse model of ovary cancer.

`COc1cccc2c1C(=O)c1c(O)c3c(c(O)c1C2=O)C[C@@](O)(C(=O)CO)C[C@@H]3O[C@H]1C[C@H](N)[C@H](O)[C@H](C)O1` [DOX]: the “Tumor volume (mm^3)” value (six i.v. injections (day 43-78), mean±SEM of five mice) was determined as 294.8 ± 216 mm^3. Further, the “Animal weight” value (six i.v. injections, mean±STDEV of five mice) came out at 22.54 ± 0.77 g.
